The values below come from patent publication US20130261178A1, “PHENOXYPROPANOL DERIVATIVES AND THEIR USE IN TREATING CARDIAC AND CARDIOVASCULAR DISEASES” (priority 2010, published 2013).

For experiment [1], the target named is T1, human beta2-adrenoceptor (Homo sapiens, UniProt P07550).
T1 construct: expressed in transfected cells; host or cells: CHO cells
In words: 3H-CGP12177 whole-cell binding, CHO cells expressing human beta2-adrenoceptor. The following applies: 3H-CGP 12177 whole cell binding, mean ± s.e.mean; for Kd: log KD, read-out: Beta 2 Log KD (converted). The text has this: (§1) The selectivity of a ligand is given by the ratio of beta-1 to beta-2 KD.

The target of experiment [2] is beta1-adrenoceptor (Homo sapiens, UniProt P08588). As to the kind of experiment: 3H-CGP12177 whole-cell binding, CHO cells expressing human beta1-adrenoceptor. The arrangement: expressed in transfected cells; host or cells: CHO cells. The following applies: 3H-CGP 12177 whole cell binding, mean ± s.e.mean; for Kd: log KD, read-out: Beta 1 Log KD (converted).
Source text: as §1

Structures can show the parent of a compound that is named as a salt.

Sequence of beta1-adrenoceptor (P08588 whole entry): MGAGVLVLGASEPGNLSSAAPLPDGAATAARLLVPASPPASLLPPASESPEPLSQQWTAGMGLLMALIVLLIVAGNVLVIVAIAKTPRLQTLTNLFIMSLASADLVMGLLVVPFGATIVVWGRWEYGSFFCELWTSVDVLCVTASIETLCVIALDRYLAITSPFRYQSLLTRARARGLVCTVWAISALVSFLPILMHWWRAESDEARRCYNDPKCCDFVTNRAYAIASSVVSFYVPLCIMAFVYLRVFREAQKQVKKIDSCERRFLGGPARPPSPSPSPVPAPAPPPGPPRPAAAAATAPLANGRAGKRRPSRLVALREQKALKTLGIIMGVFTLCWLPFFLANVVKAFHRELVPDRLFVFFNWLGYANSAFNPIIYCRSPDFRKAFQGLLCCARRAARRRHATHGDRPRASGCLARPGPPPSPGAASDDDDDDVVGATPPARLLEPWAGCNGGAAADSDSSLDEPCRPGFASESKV
T1 sequence (P07550 whole entry): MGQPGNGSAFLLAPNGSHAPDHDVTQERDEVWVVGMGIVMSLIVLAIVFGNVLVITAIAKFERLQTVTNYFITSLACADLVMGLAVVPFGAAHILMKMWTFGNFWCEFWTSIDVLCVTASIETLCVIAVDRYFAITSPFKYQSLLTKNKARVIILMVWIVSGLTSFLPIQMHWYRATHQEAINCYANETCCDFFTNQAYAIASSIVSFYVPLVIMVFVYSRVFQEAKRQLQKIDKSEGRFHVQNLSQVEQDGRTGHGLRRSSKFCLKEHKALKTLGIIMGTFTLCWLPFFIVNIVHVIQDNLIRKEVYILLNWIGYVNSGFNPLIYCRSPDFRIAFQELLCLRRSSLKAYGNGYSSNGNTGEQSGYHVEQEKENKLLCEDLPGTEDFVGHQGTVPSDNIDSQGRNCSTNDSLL

Take `NC(=O)c1cccc(OCCNCC(O)COc2ccc(OCCOC3CCCC3)cc2)c1` (stereo not drawn) [67b]: the dissociation constant Kd was 1000 nM in experiment [1] and 18.2 nM in experiment [2].
Consider `OC(CNCCOc1ccccc1-c1ccccc1)COc1ccc(OCCOC2CCCC2)cc1` (stereo not drawn) [65c], for which the Kd is 741 nM in experiment [1] and 107 nM in experiment [2].
With `CC(C)OCCOc1ccc(OCC(O)CNCCNC(=O)Nc2cccc(Cl)c2)cc1` (stereo not drawn) [46k, 1-(2-(3-(4-(2-(Isopropyloxy)ethoxy)phenoxy)-2-hydroxypropylamino)ethyl)-3-(3-chlorophenyl)urea], the dissociation constant Kd in experiment [1] is 5130 nM; in experiment [2], 21.4 nM.
In the case of `COc1cc(C(=O)NCCNCC(O)COc2ccc(OCCOC3CCCC3)cc2)ccc1O` (stereo not drawn) [62f], the Kd in experiment [1] is 1410 nM; in experiment [2], 4.9 nM.
With `NC(=O)c1cc(OCCNCC(O)COc2ccc(OCCOC3CCCC3)cc2)ccc1O` (stereo not drawn) [compound 72, 5-(2-(3-(4-(2-(Cyclopentyloxy)ethoxy)phenoxy)-2-hydroxypropylamino)ethoxy)-2-hydroxybenzamide], the Kd in experiment [1] was 25.1 nM; in experiment [2] it was 0.776 nM.
Turning to `Nc1ccccc1NC(=O)NCCNCC(O)COc1ccc(OCCOC2CCCC2)cc1` (stereo not drawn) [60a], the dissociation constant (Kd) is 2190 nM in experiment [1] and 75.9 nM in experiment [2].
Turning to `Nc1ccc(NC(=O)NCCNCC(O)COc2ccc(OCCOC3CCCC3)cc2)cc1` (stereo not drawn) [60c], the Kd is 3630 nM in experiment [1] and 29.5 nM in experiment [2].
Consider `COC(=O)c1ccc(NC(=O)NCCNCC(O)COc2ccc(OCCOC3CCCC3)cc2)cc1` (stereo not drawn) [47z, Methyl 4-(3-(2-(3-(4-(2-(cyclopentyloxy)ethoxy)phenoxy)-2-hydroxypropylamino)ethyl)ureido)benzoate], for which the dissociation constant Kd was 2040 nM in experiment [1] and 43.7 nM in experiment [2].
On the same counts, the results for `O=C(NCCNCC(O)COc1ccc(OCCOC2CCCC2)cc1)Nc1ccc(C(=O)O)cc1` (stereo not drawn) [47bb, 4-(3-(2-(3-(4-(2-(Cyclopentyloxy)ethoxy)phenoxy)-2-hydroxypropylamino)ethyl)ureido)benzoic acid hydrochloride] are 43700 ± 701 nM and 105 nM.
With `Oc1ccc(OCCCNCC(O)COc2ccc(OCCOC3CCCC3)cc2)cc1` (stereo not drawn) [65f], the Kd in experiment [1] is 794 nM; in experiment [2], 34.7 nM.
In the case of `Nc1cccc(NC(=O)NCCNCC(O)COc2ccc(OCCOC3CCCC3)cc2)c1` (stereo not drawn) [60b], the Kd is 4170 nM in experiment [1] and 20 nM in experiment [2].
`O=C(NCCNCC(O)COc1ccc(OCCOC2CC2)cc1)Nc1cccc(Cl)c1` (stereo not drawn) [46o, 1-(3-Chlorophenyl)-3-(2-(3-(4-(2-cyclopropoxyethoxy)phenoxy)-2-hydroxypropylamino)ethyl)urea]: the Kd was 2950 nM in experiment [1] and 13.8 nM in experiment [2].
For the compound `OC(CNCCOc1cccc(Cl)c1)COc1ccc(OCCOC2CCCC2)cc1` (stereo not drawn) [65a], the Kd in experiment [1] is 776 nM; in experiment [2], 74.1 nM.
As for `Oc1ccc(OCCNCC(O)COc2ccc(OCCOC3CCCC3)cc2)cc1` (stereo not drawn) [65e], the dissociation constant Kd in experiment [1] was 204 nM; in experiment [2], 5.75 nM.
For `O=C(NCCNC[C@H](O)COc1ccc(OCCOC2CCCC2)cc1)Nc1cccc(Cl)c1` [(S)-47l, (S)-1-(2-(3-(4-(2-(Cyclopentyloxy)ethoxy)phenoxy)-2-hydroxypropylamino)ethyl)-3-(3-chlorophenyl)urea], the Kd is 1150 nM in experiment [1] and 2.82 nM in experiment [2].
Consider `COc1ccc(OCCNCC(O)COc2ccc(OCCOC3CCCC3)cc2)cc1` (stereo not drawn) [67e], for which the dissociation constant (Kd) was 794 nM in experiment [1] and 8.91 nM in experiment [2].
Turning to `CC(=O)Oc1ccc(C(=O)NCCNCC(O)COc2ccc(OCCOC3CCCC3)cc2)cc1` (stereo not drawn) [62e, 4-(2-(3-(4-(2-(Cyclopentyloxy)ethoxy)phenoxy)-2-hydroxypropylamino)ethylcarbamoyl)phenyl acetate], the “Beta 2 Log KD” value in experiment [1] was −6.27 ± 0.03. For the same compound, the “Beta 1 Log KD” value in experiment [2] is recorded as −8.42 ± 0.02.
`O=C(NCCNC[C@@H](O)COc1ccc(OCCOC2CCCC2)cc1)Nc1cccc(Cl)c1` [(R)-47l, (R)-1-(2-(3-(4-(2-(Cyclopentyloxy)ethoxy)phenoxy)-2-hydroxypropylamino)ethyl)-3-(3-chlorophenyl)urea]: the Kd in experiment [1] is 5890 nM; in experiment [2], 186 nM.
For `O=C(Cc1ccccc1O)NCCNCC(O)COc1ccc(OCCOC2CCCC2)cc1` (stereo not drawn) [62u], the results for the Kd in experiment [1] and in experiment [2] were 138 nM and 19.1 nM, respectively.
`O=C(NCCNCC(O)COc1ccc(OCCOC2CCCC2)cc1)Nc1ccc(O)c(Cl)c1` (stereo not drawn) [54c, 1-(3-Chloro-4-hydroxyphenyl)-3-(2-(3-(4-(2-(cyclopentyloxy)ethoxy)phenoxy)-2-hydroxypropylamino)ethyl)urea]: the Kd in experiment [1] is 1020 nM; in experiment [2], 7.24 nM.
The corresponding values for `NC(=O)c1ccccc1OCCNCC(O)COc1ccc(OCCOC2CCCC2)cc1` (stereo not drawn) [67a] are 1050 nM and 49 nM.
As for `COC(=O)c1cccc(NC(=O)NCCNCC(O)COc2ccc(OCCOC3CCCC3)cc2)c1` (stereo not drawn) [47y, Methyl 3-(3-(2-(3-(4-(2-(cyclopentyloxy)ethoxy)phenoxy)-2-hydroxypropylamino)ethyl)ureido)benzoate], the Kd in experiment [1] was 1100 nM; in experiment [2], 12.3 nM.
As to `NC(=O)c1ccc(OCCNCC(O)COc2ccc(OCCOC3CCCC3)cc2)cc1` (stereo not drawn) [67c], the dissociation constant Kd is 851 nM in experiment [1] and 3.31 nM in experiment [2].
For `O=C(NCCNCC(O)COc1ccc(OCCOC2CCCC2)cc1)Nc1cccc(C(=O)O)c1` (stereo not drawn) [47aa, 3-(3-(2-(3-(4-(2-(Cyclopentyloxy)ethoxy)phenoxy)-2-hydroxypropylamino)ethyl)ureido)benzoic acid hydrochloride], the figures for the Kd in experiment [1] and in experiment [2] were 43650 ± 400 nM and 77.6 nM, respectively.
With `CCCOCCOc1ccc(OCC(O)CNCCNC(=O)Nc2cccc(Cl)c2)cc1` (stereo not drawn) [46m, 1-(2-(3-(4-(2-(Propyloxy)ethoxy)phenoxy)-2-hydroxypropylamino)ethyl)-3-(3-chlorophenyl)urea], the Kd was 3720 nM in experiment [1] and 16.2 nM in experiment [2].
As for `O=C(NCCNCC(O)COc1ccc(OCCOC2CC2)cc1)Nc1ccc(O)cc1` (stereo not drawn) [46p, 1-(2-(3-(4-(2-Cyclopropoxyethoxy)phenoxy)-2-hydroxypropylamino)ethyl)-3-(4-hydroxyphenyl)urea], the Kd in experiment [1] is 25700 nM; in experiment [2], 63.1 nM.
Take `OC(CNCCOc1ccc(F)cc1)COc1ccc(OCCOC2CCCC2)cc1` (stereo not drawn) [67d]: the figures for the Kd in experiment [1] and in experiment [2] were 1020 nM and 9.33 nM, respectively.
As for `CCCOCCOc1ccc(OCC(O)CNCCNC(=O)Nc2ccc(O)cc2)cc1` (stereo not drawn) [46n, 1-(2-(3-(4-(2-(Propyloxy)ethoxy)phenoxy)-2-hydroxypropylamino)ethyl)-3-(4-hydroxyphenyl)urea], the dissociation constant (Kd) was 13500 nM in experiment [1] and 37.2 nM in experiment [2].
Turning to `O=C(NCCNCC(O)COc1ccc(OCCOC2CCCC2)cc1)Nc1ccc([N+](=O)[O-])cc1` (stereo not drawn) [47w, 1-(2-(3-(4-(2-(Cyclopentyloxy)ethoxy)phenoxy)-2-hydroxypropylamino)ethyl)-3-(4-nitrophenyl)urea], the values for the dissociation constant (Kd) in experiment [1] and in experiment [2] were 1780 nM and 18.6 nM, respectively.
For `CCOCCOc1ccc(OCC(O)CNCCNC(=O)Nc2ccc(OCc3ccccc3)cc2)cc1` (stereo not drawn) [45d], the equilibrium dissociation constant (Kd) in experiment [2] was 91.2 nM.
For the compound `Cc1cccc(CC(=O)NCCNCC(O)COc2ccc(OCCOC3CCCC3)cc2)c1` (stereo not drawn) [62q], the Kd in experiment [1] is 302 nM; in experiment [2], 26.9 nM.
On to `COc1ccc(CC(=O)NCCNCC(O)COc2ccc(OCCOC3CCCC3)cc2)cc1` (stereo not drawn) [62t], for which the Kd in experiment [1] is 91.2 nM; in experiment [2], 9.77 nM.
